Assay results as given in ChEMBL document CHEMBL3991601, “The target landscape of clinical kinase drugs” (Science, 2017).
Calls of active or inactive are those of the source.

Key:
[1] = target: T1, Structural maintenance of chromosomes protein 1A (Homo sapiens, UniProt Q14683)
T1 sequence (Q14683 whole entry): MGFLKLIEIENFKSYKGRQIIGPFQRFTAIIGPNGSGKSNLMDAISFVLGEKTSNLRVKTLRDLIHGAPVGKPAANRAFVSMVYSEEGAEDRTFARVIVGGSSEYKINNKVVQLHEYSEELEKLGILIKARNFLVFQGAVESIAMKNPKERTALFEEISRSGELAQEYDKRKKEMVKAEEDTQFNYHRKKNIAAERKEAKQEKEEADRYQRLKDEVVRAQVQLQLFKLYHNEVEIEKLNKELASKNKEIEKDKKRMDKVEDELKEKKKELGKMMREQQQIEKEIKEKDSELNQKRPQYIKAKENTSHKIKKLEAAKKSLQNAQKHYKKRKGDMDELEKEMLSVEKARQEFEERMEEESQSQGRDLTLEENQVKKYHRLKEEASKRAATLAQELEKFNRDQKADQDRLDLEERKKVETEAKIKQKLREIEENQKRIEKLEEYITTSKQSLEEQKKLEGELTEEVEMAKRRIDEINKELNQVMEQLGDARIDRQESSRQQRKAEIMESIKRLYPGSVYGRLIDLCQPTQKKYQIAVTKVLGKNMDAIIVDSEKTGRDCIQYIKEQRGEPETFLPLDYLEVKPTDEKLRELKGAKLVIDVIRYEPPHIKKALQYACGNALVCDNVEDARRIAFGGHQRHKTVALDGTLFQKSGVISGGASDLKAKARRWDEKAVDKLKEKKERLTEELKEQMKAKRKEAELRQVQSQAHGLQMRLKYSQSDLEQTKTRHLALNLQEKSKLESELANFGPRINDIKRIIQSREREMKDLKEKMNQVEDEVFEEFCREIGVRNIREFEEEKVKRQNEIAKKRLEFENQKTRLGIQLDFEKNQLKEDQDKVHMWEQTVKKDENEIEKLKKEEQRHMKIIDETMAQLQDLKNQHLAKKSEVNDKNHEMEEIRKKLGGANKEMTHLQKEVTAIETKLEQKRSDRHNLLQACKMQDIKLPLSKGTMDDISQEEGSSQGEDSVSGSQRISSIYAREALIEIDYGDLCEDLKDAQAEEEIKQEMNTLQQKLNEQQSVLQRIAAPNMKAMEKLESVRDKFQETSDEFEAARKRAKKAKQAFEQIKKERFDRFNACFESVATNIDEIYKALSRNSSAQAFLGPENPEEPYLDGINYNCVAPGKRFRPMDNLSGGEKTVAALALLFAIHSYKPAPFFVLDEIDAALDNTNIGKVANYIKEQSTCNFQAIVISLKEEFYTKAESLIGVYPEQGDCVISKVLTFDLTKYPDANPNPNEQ

[2] = target: Insulin-like growth factor 1 receptor (Homo sapiens, UniProt P08069)
[3] = target: Mitogen-activated protein kinase 3 (Homo sapiens, UniProt P27361)
[4] = target: T2, Acyl-CoA dehydrogenase family member 10 (Homo sapiens, UniProt Q6JQN1)
T2 sequence (Q6JQN1 whole entry): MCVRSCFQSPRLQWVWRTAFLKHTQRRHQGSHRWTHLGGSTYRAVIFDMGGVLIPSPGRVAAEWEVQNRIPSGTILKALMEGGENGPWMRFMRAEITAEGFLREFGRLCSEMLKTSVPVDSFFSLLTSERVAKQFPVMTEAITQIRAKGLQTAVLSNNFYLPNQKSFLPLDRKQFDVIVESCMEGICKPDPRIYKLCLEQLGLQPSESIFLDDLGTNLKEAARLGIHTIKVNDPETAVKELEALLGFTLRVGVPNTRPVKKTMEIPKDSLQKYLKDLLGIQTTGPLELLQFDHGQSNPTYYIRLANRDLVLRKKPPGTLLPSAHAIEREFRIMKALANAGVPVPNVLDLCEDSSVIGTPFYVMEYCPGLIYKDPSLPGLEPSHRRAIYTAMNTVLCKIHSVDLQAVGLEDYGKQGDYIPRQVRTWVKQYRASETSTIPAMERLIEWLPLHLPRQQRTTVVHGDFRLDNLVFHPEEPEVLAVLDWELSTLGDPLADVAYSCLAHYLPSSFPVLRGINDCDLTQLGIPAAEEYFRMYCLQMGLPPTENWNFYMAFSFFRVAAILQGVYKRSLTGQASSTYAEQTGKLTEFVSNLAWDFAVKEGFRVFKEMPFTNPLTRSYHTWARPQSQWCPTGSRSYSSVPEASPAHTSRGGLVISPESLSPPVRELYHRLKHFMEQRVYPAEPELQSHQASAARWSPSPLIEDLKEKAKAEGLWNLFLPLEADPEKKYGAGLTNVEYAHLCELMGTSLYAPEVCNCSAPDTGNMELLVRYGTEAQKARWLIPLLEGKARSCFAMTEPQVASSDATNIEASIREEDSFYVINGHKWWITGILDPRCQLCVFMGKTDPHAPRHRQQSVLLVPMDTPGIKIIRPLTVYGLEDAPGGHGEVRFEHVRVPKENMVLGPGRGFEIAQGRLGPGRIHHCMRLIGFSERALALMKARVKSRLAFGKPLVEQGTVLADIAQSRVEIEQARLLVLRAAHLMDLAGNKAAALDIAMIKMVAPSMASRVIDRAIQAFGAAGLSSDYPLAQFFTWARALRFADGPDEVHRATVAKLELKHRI

[5] = target: Bone morphogenetic protein receptor type-1B (Homo sapiens, UniProt O00238)
[6] = target: Ribosomal protein S6 kinase alpha-6 (Homo sapiens, UniProt Q9UK32)
TGF-beta receptor type-1 = target: T3, TGF-beta receptor type-1 (Homo sapiens, UniProt P36897)
T3 sequence (P36897 whole entry): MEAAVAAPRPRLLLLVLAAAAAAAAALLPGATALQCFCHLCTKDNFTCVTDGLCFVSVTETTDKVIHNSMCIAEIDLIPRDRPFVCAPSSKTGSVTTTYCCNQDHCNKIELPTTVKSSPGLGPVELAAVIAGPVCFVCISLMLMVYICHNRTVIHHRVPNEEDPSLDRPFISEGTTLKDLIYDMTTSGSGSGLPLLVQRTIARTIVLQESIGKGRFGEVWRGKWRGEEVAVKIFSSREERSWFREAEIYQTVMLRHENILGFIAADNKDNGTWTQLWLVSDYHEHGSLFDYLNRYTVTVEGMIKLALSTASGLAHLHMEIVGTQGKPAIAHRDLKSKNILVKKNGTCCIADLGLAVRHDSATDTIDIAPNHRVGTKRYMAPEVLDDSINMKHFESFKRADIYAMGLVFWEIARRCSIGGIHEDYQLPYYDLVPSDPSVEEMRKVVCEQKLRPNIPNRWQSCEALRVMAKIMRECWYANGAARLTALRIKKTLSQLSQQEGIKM

[7] = target: Serine/threonine-protein kinase PAK 2 (Homo sapiens, UniProt Q13177)
Further: in the data inactive means no Kd found up to 30 µM.

Sequence of Insulin-like growth factor 1 receptor (P08069 31-736 limits assumed): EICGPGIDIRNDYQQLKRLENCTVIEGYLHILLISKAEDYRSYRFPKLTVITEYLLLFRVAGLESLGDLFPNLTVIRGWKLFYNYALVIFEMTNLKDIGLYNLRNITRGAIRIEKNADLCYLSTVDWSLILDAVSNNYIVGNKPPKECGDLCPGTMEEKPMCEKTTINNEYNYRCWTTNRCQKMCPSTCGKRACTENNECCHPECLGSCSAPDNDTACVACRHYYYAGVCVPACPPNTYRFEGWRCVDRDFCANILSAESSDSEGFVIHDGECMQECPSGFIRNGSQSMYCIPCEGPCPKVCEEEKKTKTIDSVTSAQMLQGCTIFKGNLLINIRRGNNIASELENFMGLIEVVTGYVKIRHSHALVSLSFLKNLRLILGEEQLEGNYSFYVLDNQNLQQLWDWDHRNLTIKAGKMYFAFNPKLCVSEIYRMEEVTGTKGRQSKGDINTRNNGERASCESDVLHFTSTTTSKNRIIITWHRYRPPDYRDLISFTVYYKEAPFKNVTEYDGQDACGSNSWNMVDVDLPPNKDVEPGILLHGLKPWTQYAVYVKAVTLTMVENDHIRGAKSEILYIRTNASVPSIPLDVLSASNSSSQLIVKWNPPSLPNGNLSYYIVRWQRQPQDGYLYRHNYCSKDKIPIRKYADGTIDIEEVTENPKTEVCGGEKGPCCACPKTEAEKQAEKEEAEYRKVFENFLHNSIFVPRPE
Sequence of Insulin-like growth factor 1 receptor (P08069 741-1367 limits assumed): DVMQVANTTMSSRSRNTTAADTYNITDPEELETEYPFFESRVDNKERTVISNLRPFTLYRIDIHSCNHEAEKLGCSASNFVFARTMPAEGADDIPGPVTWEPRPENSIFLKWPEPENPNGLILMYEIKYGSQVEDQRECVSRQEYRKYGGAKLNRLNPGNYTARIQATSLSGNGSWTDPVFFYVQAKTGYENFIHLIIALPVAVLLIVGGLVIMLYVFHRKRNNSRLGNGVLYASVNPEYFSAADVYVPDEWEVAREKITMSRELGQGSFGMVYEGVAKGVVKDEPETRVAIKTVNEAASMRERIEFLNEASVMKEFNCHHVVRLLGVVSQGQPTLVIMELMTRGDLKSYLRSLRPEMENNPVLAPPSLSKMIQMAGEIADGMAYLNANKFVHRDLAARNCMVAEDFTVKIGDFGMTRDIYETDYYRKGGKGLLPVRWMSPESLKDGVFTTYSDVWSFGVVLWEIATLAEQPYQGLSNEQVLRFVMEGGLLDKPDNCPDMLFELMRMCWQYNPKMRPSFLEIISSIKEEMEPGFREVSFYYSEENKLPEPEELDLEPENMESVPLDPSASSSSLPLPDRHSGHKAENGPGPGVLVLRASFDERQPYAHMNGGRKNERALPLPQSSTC
Sequence of Serine/threonine-protein kinase PAK 2 (Q13177 whole entry): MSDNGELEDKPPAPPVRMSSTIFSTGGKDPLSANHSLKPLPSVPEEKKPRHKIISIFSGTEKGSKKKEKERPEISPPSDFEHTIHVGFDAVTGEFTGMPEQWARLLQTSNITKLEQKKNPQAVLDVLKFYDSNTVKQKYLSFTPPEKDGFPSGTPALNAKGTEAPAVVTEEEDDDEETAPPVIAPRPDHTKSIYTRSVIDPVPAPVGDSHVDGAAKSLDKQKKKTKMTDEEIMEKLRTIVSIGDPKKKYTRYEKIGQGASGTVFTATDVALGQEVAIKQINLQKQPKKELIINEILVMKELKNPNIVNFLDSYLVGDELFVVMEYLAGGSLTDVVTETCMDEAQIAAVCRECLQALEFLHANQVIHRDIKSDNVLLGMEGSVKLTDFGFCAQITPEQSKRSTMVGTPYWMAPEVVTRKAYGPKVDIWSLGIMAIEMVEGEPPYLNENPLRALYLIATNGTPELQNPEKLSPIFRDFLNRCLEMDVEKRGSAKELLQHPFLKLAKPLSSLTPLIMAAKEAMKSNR
Sequence of Ribosomal protein S6 kinase alpha-6 (Q9UK32 whole entry): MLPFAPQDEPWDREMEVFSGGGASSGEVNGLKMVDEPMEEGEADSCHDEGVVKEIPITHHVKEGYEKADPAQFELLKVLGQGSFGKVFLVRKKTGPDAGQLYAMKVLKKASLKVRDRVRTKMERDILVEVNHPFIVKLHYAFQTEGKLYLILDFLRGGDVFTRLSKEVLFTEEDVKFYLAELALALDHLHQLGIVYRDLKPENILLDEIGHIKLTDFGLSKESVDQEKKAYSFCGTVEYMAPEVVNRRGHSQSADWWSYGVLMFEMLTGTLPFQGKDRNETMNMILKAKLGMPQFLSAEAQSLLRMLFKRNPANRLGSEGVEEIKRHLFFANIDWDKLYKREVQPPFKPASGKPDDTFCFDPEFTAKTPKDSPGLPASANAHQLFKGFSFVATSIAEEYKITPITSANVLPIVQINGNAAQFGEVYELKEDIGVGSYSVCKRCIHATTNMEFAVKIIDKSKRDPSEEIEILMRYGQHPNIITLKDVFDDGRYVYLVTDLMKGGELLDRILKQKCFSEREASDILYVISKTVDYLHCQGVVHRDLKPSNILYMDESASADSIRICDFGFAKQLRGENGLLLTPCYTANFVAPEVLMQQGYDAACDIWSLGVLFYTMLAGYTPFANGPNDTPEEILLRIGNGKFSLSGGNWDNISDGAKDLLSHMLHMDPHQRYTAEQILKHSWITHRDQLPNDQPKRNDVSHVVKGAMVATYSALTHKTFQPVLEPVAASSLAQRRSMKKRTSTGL
Sequence of Mitogen-activated protein kinase 3 (P27361 whole entry): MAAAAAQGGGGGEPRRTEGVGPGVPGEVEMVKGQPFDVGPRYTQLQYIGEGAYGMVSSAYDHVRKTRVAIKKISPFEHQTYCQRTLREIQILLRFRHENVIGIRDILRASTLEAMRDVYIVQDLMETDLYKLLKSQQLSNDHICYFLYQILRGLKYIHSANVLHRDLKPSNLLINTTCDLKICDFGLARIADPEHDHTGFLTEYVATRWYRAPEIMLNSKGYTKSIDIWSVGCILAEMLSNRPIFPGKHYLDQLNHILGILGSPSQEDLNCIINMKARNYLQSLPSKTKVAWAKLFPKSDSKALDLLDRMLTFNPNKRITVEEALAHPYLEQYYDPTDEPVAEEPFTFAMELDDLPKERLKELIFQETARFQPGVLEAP
Sequence of Bone morphogenetic protein receptor type-1B (O00238 whole entry): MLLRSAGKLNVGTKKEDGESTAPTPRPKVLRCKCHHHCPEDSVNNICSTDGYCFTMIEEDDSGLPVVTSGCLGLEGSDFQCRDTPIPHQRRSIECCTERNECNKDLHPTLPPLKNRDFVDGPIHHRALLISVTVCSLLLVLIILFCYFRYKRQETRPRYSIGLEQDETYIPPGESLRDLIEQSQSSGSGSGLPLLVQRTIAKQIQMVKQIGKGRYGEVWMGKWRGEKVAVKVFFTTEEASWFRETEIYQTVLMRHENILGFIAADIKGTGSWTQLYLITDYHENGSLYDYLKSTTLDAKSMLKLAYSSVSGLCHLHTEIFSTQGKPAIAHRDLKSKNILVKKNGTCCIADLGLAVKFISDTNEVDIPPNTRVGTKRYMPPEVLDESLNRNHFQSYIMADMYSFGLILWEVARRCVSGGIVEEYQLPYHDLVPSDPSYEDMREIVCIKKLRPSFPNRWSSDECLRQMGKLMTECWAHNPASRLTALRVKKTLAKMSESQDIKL

Row | Compound | Kd [1] | Kd [2] | Kd [3] | Kd [4] | Kd [5] | Kd [6] | Kd (TGF-beta receptor type-1) | Kd [7]
1 | CNC(=O)CN1CCC(Oc2cc3c(Nc4cccc(Cl)c4F)ncnc3cc2OC)CC1 [SAPITINIB] | > 30 µM (inactive) | > 30 µM (inactive) | > 30 µM (inactive) | > 30 µM (inactive) | > 30 µM (inactive) | > 30 µM (inactive) | > 30 µM (inactive) | > 30 µM (inactive)
2 | COc1cc(CCc2cc(NC(=O)c3ccc(N4C[C@@H](C)N[C@@H](C)C4)cc3)n[nH]2)cc(OC)c1 [AZD-4547] | > 30 µM (inactive) | > 30 µM (inactive) | > 30 µM (inactive) | > 30 µM (inactive) | > 30 µM (inactive) | > 30 µM (inactive) | > 30 µM (inactive) | > 30 µM (inactive)
3 | CNC(=O)c1cc(Oc2ccc(NC(=O)Nc3ccc(Cl)c(C(F)(F)F)c3)c(F)c2)ccn1 [REGORAFENIB] | > 30 µM (inactive) | > 30 µM (inactive) | > 30 µM (inactive) | > 30 µM (inactive) | > 30 µM (inactive) | > 30 µM (inactive) | > 30 µM (inactive) | > 30 µM (inactive)
4 | COCCNCc1ccc(-c2cc3nccc(Oc4ccc(NC(=S)NC(=O)Cc5ccc(F)cc5)cc4F)c3s2)nc1 [GLESATINIB] | > 30 µM (inactive) | > 30 µM (inactive) | > 30 µM (inactive) | > 30 µM (inactive) | > 30 µM (inactive) | > 30 µM (inactive) | > 30 µM (inactive) | > 30 µM (inactive)
5 | CN1CC[C@@H](c2c(O)cc(O)c3c(=O)cc(-c4ccccc4Cl)oc23)[C@@H]1CO | > 30 µM (inactive) | > 30 µM (inactive) | > 30 µM (inactive) | > 30 µM (inactive) | > 30 µM (inactive) | > 30 µM (inactive) | > 30 µM (inactive) | > 30 µM (inactive)
6 | COc1cc(OC)c(/C=C/S(=O)(=O)Cc2ccc(OC)c(NCC(=O)O)c2)c(OC)c1 [RIGOSERTIB] | > 30 µM (inactive) | > 30 µM (inactive) | > 30 µM (inactive) | > 30 µM (inactive) | > 30 µM (inactive) | > 30 µM (inactive) | > 30 µM (inactive) | > 30 µM (inactive)
7 | COc1cc2nccc(Oc3ccc(NC(=O)Nc4cc(C)on4)c(Cl)c3)c2cc1OC [TIVOZANIB] | > 30 µM (inactive) | > 30 µM (inactive) | > 30 µM (inactive) | > 30 µM (inactive) | > 30 µM (inactive) | > 30 µM (inactive) | > 30 µM (inactive) | > 30 µM (inactive)
8 | CNC(=O)c1ccc(-c2cnc3ncc(Cc4ccc5ncccc5c4)n3n2)cc1F [CAPMATINIB] | > 30 µM (inactive) | > 30 µM (inactive) | > 30 µM (inactive) | > 30 µM (inactive) | > 30 µM (inactive) | > 30 µM (inactive) | > 30 µM (inactive) | > 30 µM (inactive)
9 | C[C@@H](c1ccc2nccn2c1)n1nnc2ncc(-c3cnn(C)c3)nc21 [SAVOLITINIB] | > 30 µM (inactive) | > 30 µM (inactive) | > 30 µM (inactive) | > 30 µM (inactive) | > 30 µM (inactive) | > 30 µM (inactive) | > 30 µM (inactive) | > 30 µM (inactive)
10 | CC[C@@H]1C(=O)N(C)c2cnc(Nc3ccc(C(=O)N[C@H]4CC[C@H](N5CCN(CC6CC6)CC5)CC4)cc3OC)nc2N1C(C)C [VOLASERTIB] | > 30 µM (inactive) | > 30 µM (inactive) | > 30 µM (inactive) | > 30 µM (inactive) | > 30 µM (inactive) | > 30 µM (inactive) | > 30 µM (inactive) | > 30 µM (inactive)
11 | CN1CCC(COc2cnc(-c3cccc(Cn4nc(-c5cccc(C#N)c5)ccc4=O)c3)nc2)CC1 [TEPOTINIB] | > 30 µM (inactive) | > 30 µM (inactive) | > 30 µM (inactive) | > 30 µM (inactive) | > 30 µM (inactive) | > 30 µM (inactive) | > 30 µM (inactive) | > 30 µM (inactive)
12 | Cc1cc2c(F)c(Oc3ncnn4cc(OC[C@@H](C)OC(=O)[C@H](C)N)c(C)c34)ccc2[nH]1 [BRIVANIB ALANINATE] | > 30 µM (inactive) | > 30 µM (inactive) | > 30 µM (inactive) | > 30 µM (inactive) | > 30 µM (inactive) | > 30 µM (inactive) | > 30 µM (inactive) | > 30 µM (inactive)
13 | Cc1cc([C@@H](C)Nc2ccccc2C(=O)O)c2nc(N3CCOCC3)cc(=O)n2c1 [AZD-6482] | > 30 µM (inactive) | > 30 µM (inactive) | > 30 µM (inactive) | > 30 µM (inactive) | > 30 µM (inactive) | > 30 µM (inactive) | > 30 µM (inactive) | > 30 µM (inactive)
14 | COC(=O)[C@@]1(O)C[C@H]2O[C@]1(C)n1c3ccccc3c3c4c(c5c6ccccc6n2c5c31)C(=O)NC4 [K-252A] | > 30 µM (inactive) | > 30 µM (inactive) | > 30 µM (inactive) | > 30 µM (inactive) | > 30 µM (inactive) | 2.18 µM (active) | 2.18 µM (active) | > 30 µM (inactive)
15 | CCS(=O)(=O)N1CC(CC#N)(n2cc(-c3ncnc4[nH]ccc34)cn2)C1 [BARICITINIB] | > 30 µM (inactive) | > 30 µM (inactive) | > 30 µM (inactive) | > 30 µM (inactive) | > 30 µM (inactive) | > 30 µM (inactive) | > 30 µM (inactive) | > 30 µM (inactive)
